Test results: the NIST ThermoML archive (doi:10.1021/acs.jced.7b00712)

Settings: Fluid (supercritical or subcritical phases), Brillouin light scattering

CCCCCCCC [octane]
Settings	speed of sound [m/s]
603.85 K, 8000 kPa	299
604.21 K, 9000 kPa	324.3
605.28 K, 3000 kPa	116.6
605.73 K, 3500 kPa	94.8
606.87 K, 4000 kPa	111.1
607.11 K, 4500 kPa	144.8
607.61 K, 5000 kPa	169.3
607.97 K, 6000 kPa	215.3
608.4 K, 7000 kPa	254.8
608.86 K, 8000 kPa	285.3
609.24 K, 9000 kPa	312.3
609.54 K, 10000 kPa	340.1
610.17 K, 3000 kPa	124.3
610.28 K, 3500 kPa	103.2
611.94 K, 4500 kPa	133.3
612.5 K, 4000 kPa	108.7
613.58 K, 5000 kPa	153.7
613.8 K, 6000 kPa	204.8
614.19 K, 7000 kPa	242.3
614.65 K, 8000 kPa	273.2
614.76 K, 3000 kPa	129.2
614.83 K, 3500 kPa	111.5
615.18 K, 9000 kPa	302
616.02 K, 4500 kPa	128.5
616.33 K, 5000 kPa	148.3
617.46 K, 4000 kPa	110.4
619.43 K, 3000 kPa	134.1
619.62 K, 3500 kPa	119
619.76 K, 4500 kPa	125.2
620.31 K, 5000 kPa	144
622 K, 4000 kPa	112.6
623.42 K, 5000 kPa	141.6
623.5 K, 6000 kPa	184.3
623.84 K, 7000 kPa	224.1
624.5 K, 8000 kPa	254.1
624.55 K, 3500 kPa	124.9
624.66 K, 4000 kPa	114.2
624.87 K, 9000 kPa	283.1
624.89 K, 3000 kPa	139.4
625 K, 4500 kPa	125.1
625.29 K, 5000 kPa	139.2
628.69 K, 4000 kPa	120.4
629.77 K, 5000 kPa	137.3
629.96 K, 3500 kPa	132.1
630.15 K, 3000 kPa	144.3
630.45 K, 4500 kPa	126.6
632.06 K, 4000 kPa	124.2
633.13 K, 5000 kPa	137.6
633.62 K, 6000 kPa	169.8
633.94 K, 7000 kPa	204.8
634.48 K, 8000 kPa	240.7
635.95 K, 3000 kPa	149.3
635.97 K, 3500 kPa	140
636.07 K, 4000 kPa	131.6
636.31 K, 4500 kPa	132
637.58 K, 5000 kPa	140.4
638.73 K, 3500 kPa	142.4
638.9 K, 3000 kPa	152.4
639.03 K, 4500 kPa	134.5
642.09 K, 5000 kPa	144.1
642.28 K, 6000 kPa	160.5
642.66 K, 4000 kPa	142.7
642.75 K, 7000 kPa	194.7
643.16 K, 8000 kPa	229.4
